Data published in US11976062B2, “Benzisoxazole compound” (OSAKA UNIVERSITY, priority 2018, dated 2024).

Key:
[1] = system: renal interstitial fibrosis caused by unilateral ureteral obstruction; conditions: mice; cited from earlier work
[2] = system: α-SMA expression induced by TGFβ1 in dermal fibroblasts; assay: Fibrosis inhibition evaluation 1: western blotting of α-SMA in dermal fibroblasts; format: cell-based, mice; conditions: compound 011 0.1, 1, 10 μM (especially 10 μM); Pyr 2 10 μM; TGFβ1 10 ng/ml, 48 hours
Protocol: The expression of α-smooth muscle actin (α-SMA) in fibroblasts was evaluated by western blotting. Dermal fibroblasts were isolated from 1 to 3-day-old mice, and 2.5×10^5 cells were seeded in a 12-well plate. After 24 hours, the medium was replaced with a medium free of fetal bovine serum, and the cells were cultured for another 24 hours. Thereafter, 10 ng/ml of transforming growth factor β1 (TGFβ1) was added, and the cells were cultured for 48 hours. At the same time as TGFβ1 was added, a test compound (compound 011) of a predetermined concentration (0.1 μM, 1 μM, 10 μM) and 10 μM of Pyr 2 or DMSO (solvent control) were also added. […] The cultured cells were dissolved in a lysis buffer (140 mM NaCl, 20 mM Tris-HCl pH 7.8, 1% Triton-X100, 0.05% sodium deoxycholate, 0.1% SDS, 2 mM EDTA, proteinase inhibitor cocktail), and separated by SDS-PAGE, followed by detecting α-SMA using anti-α-SMA antibody (Sigma) as the primary antibody and anti-mouse IgG antibody (cell signaling) fused with horse radish peroxidase as the secondary antibody.

dermal fibroblasts = assay: Fibrosis inhibition evaluation 1: cell morphology observation of dermal fibroblasts; format: cell-based, mice; conditions: dermal fibroblasts cultured 48 hours with TGFβ1
[3] = system: α-SMA expression induced by TGFβ1 in dermal fibroblasts; assay: Fibrosis inhibition evaluation 2: immunofluorescent staining of α-SMA in dermal fibroblasts; format: cell-based, mice; conditions: 10 μM, TGFβ1 10 ng/ml, 48 hours, FIG. 7
Protocol: (§1) In the same manner as in Test Example 5, dermal fibroblasts were isolated from mice, and sterilized cover glass (diameter: 12 mm) was placed in a 12-well plate. On the cover glass, 2.5×10^5 cells were seeded and grown. After 24 hours, the medium was replaced with a medium free of fetal bovine serum, and the cells were cultured for another 24 hours. Separately, cardiac fibroblasts were isolated from 1 to 2-day-old rats and treated in the same manner as for the dermal fibroblasts. Thereafter, 10 ng/ml TGFβ1 was added to the dermal fibroblasts, and 2 ng/ml TGFβ2 was added to the cardiac fibroblasts, followed by culturing the cells for 48 hours. At the same time as TGFβ was added, 10 μM of a test compound (compound 011), 10 μM of Pyr 2 (conventional inhibitor), or DMSO (solvent control) was also added. Separately, cultured cells to which TGFβ-free phosphate buffered saline (PBS) was added were also prepared. […] After blocking with 1% bovine serum albumin, α-SMA was detected using anti-α-SMA antibody (Sigma) as the primary antibody and anti-mouse IgG antibody (Molecular Probes) fused with Alexa 488 as the secondary antibody, and an image was acquired using a fluorescence microscope (Keyence) with a 20× objective lens. The average fluorescence brightness (fluorescence intensity/pixel) per cell area was calculated and analyzed using Image J software.

[4] = system: α-SMA expression induced by TGFβ2 in cardiac fibroblasts; assay: Fibrosis inhibition evaluation 2: immunofluorescent staining of α-SMA in cardiac fibroblasts; format: cell-based, rats; conditions: 10 μM, TGFβ2 2 ng/ml, 48 hours, FIG. 8
Protocol: as §1

SMILES: Cc1nnsc1C(=O)Nc1ccc(-n2nc(C(F)(F)F)cc2C(F)(F)F)cc1 [Pyr 2, reference compound]
- suppression of renal interstitial fibrosis caused by unilateral ureteral obstruction [1]: suppresses renal interstitial fibrosis caused by unilateral ureteral obstruction
- expression of α-SMA induced by TGFβ1 (western blotting) [2]: lighter coloration of the α-SMA antibody compared with the control
- cell morphology / cell damage by microscopic observation (dermal fibroblasts): cell elongation
- expression of α-SMA induced by TGFβ (immunofluorescent staining) [3]: almost completely suppressed the expression of α-SMA
- expression of α-SMA induced by TGFβ (immunofluorescent staining) [4]: almost completely suppressed the expression of α-SMA
